Molecules are shown by their SMILES. Where “and” joins values, the source holds several entries; their conditions need not be identical. Identical values can stand only once.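 Interpolation was linear, between the two tested concentrations surrounding the appropriate level; five concentrations were tested over 48 hours in 96-well plates. Here, GI50 denotes the concentration required for 50% inhibition of growth. TGI: concentration producing complete growth inhibition.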

Test systems include NCI-H23 lung; SK-OV-3 ovarian; CAKI-1 renal; UACC-62 melanoma; SK-MEL-5 melanoma; OVCAR-8 ovarian; NCI/ADR-RES ovarian; SNB-75 CNS; TK-10 renal; SF-268 CNS.
What all share (assay): NCI-60 cell line screen, 48 h

With `Nc1cc(C(F)(F)F)c(-c2nc(N3CCOCC3)nc(N3CCOCC3)n2)cn1`, the GI50 in the test with NCI-H23 lung was 0.446 µM; with SK-OV-3 ovarian, 0.131 µM; with CAKI-1 renal it was 0.502 µM; with UACC-62 melanoma it was 0.202 µM; in the test on SK-MEL-5 melanoma it was 0.384 µM; in the test on OVCAR-8 ovarian, 0.89 µM. The figures for the GI50 in the test with SNB-75 CNS, with TK-10 renal and in the test with SF-268 CNS were 0.118 µM, 0.11 µM and 0.476 µM, respectively. Also, the TGI was over 100 µM with NCI-H23 lung; 0.598 µM with SK-OV-3 ovarian; over 71.7 µM in the test on CAKI-1 renal; 1.38 µM in the test with UACC-62 melanoma; 2.54 µM in the test with SK-MEL-5 melanoma; over 66.1 µM with OVCAR-8 ovarian. Moreover, the TGI in the test on NCI/ADR-RES ovarian was over 23.2 µM; with SNB-75 CNS it was 2.19 µM; with TK-10 renal it was 1.17 µM; with SF-268 CNS, over 72.5 µM.
Regarding `O=C1NC(c2ccccc2Cl)Nc2ccccc21` (centres undefined), the TGI is over 100 µM with NCI-H23 lung; over 100 µM in the test with SK-OV-3 ovarian; 91.8 µM with CAKI-1 renal; over 100 µM with UACC-62 melanoma; over 80.5 µM in the test with SK-MEL-5 melanoma; over 100 µM with OVCAR-8 ovarian. Moreover, the TGI with NCI/ADR-RES ovarian is 27.5 µM; in the test on SNB-75 CNS it was 49.1 µM; with TK-10 renal, over 100 µM; in the test on SF-268 CNS it was over 100 µM.
With `O=C(CCN1CCOCC1)Nc1ccc(Cn2nnc3c2C(=O)c2nnn(Cc4ccc(NC(=O)CCN5CCOCC5)cc4)c2C3=O)cc1`, the GI50 in the test with NCI-H23 lung was 1.43 µM; in the test with SK-OV-3 ovarian it was over 84 µM; in the test on CAKI-1 renal it was over 100 µM; with UACC-62 melanoma, 1.53 µM; with SK-MEL-5 melanoma, 0.59 µM; with OVCAR-8 ovarian, over 100 µM. Moreover, the GI50 was over 100 µM in the test on NCI/ADR-RES ovarian, 1.93 µM in the test on SNB-75 CNS, over 100 µM in the test on TK-10 renal and 1.28 µM with SF-268 CNS. The TGI in the test with NCI-H23 lung was 5.52 µM; in the test on SK-OV-3 ovarian, over 100 µM; in the test with CAKI-1 renal, over 100 µM; with UACC-62 melanoma it was 3.14 µM; in the test with SK-MEL-5 melanoma, 1.71 µM; in the test with OVCAR-8 ovarian, over 100 µM. Besides, the TGI with NCI/ADR-RES ovarian was over 100 µM; with SNB-75 CNS, 3.6 µM; in the test with TK-10 renal, over 100 µM; in the test on SF-268 CNS it was over 100 µM.
Turning to `COc1nc(N)nc2nc[nH]c12`, the GI50 is > 800 µM and 888 µM in the test on NCI-H23 lung; 776 µM and 508 µM in the test with SK-OV-3 ovarian; 188 µM and 295 µM in the test on CAKI-1 renal; 441 µM and 349 µM with UACC-62 melanoma; > 800 µM and 782 µM in the test on SK-MEL-5 melanoma; > 800 µM and 579 µM in the test on OVCAR-8 ovarian. The GI50 with NCI/ADR-RES ovarian is 580 µM; with SNB-75 CNS, 275 µM and 263 µM; in the test with TK-10 renal, 431 µM and 442 µM; in the test with SF-268 CNS it was 646 µM. The TGI with NCI-H23 lung is over 1000 µM; with SK-OV-3 ovarian, 212 µM and 800 µM and > 1000 µM; in the test on CAKI-1 renal, 410 µM and 522 µM and 730 µM; with UACC-62 melanoma it was 429 µM and 800 µM and > 1000 µM; in the test on SK-MEL-5 melanoma it was over 1000 µM; with OVCAR-8 ovarian, over 800 µM. Also, the TGI in the test on NCI/ADR-RES ovarian is over 739 µM; in the test on SNB-75 CNS it was 342 µM and 679 µM and > 929 µM; in the test with TK-10 renal, 500 µM and 800 µM and > 1000 µM; in the test with SF-268 CNS, 500 µM and 800 µM and > 1000 µM.
`FC(F)(F)c1cccc(CNC2CCN(CCc3ccccc3)CC2)c1`: the GI50 was 51.8 µM with NCI-H23 lung; 38.9 µM in the test with SK-OV-3 ovarian; 22.4 µM in the test with CAKI-1 renal; 13.9 µM with UACC-62 melanoma; 12.3 µM in the test with SK-MEL-5 melanoma; 18.2 µM with OVCAR-8 ovarian. The GI50 in the test with NCI/ADR-RES ovarian was 41.9 µM; in the test with SNB-75 CNS it was 11.7 µM; in the test with TK-10 renal, 30.7 µM; in the test with SF-268 CNS, 40.3 µM. Also, the TGI is over 100 µM in the test on NCI-H23 lung; over 100 µM in the test on SK-OV-3 ovarian; over 100 µM in the test with CAKI-1 renal; 30.7 µM in the test on UACC-62 melanoma; 24.7 µM in the test with SK-MEL-5 melanoma; 43.8 µM with OVCAR-8 ovarian. The TGI in the test with NCI/ADR-RES ovarian was over 100 µM; with SNB-75 CNS, 33.6 µM; in the test on TK-10 renal it was over 100 µM; with SF-268 CNS, over 100 µM.
Regarding `Cc1cccc(Oc2ccc(Nc3ncnc4ccc(NC(=O)CN(C)C)cc34)cc2Cl)c1`, the GI50 in the test on NCI-H23 lung was 2.95 µM; with SK-OV-3 ovarian it was 0.828 µM; in the test on CAKI-1 renal, 1.1 µM; with UACC-62 melanoma it was 1.71 µM; with SK-MEL-5 melanoma, 1.64 µM; in the test with OVCAR-8 ovarian it was 2.72 µM. Moreover, the GI50 was 2.83 µM with NCI/ADR-RES ovarian, 2.01 µM with SNB-75 CNS, 1.1 µM in the test with TK-10 renal and 1.47 µM with SF-268 CNS. Besides, the TGI in the test with NCI-H23 lung was found to be 11.6 µM; with SK-OV-3 ovarian, 7.24 µM; in the test on CAKI-1 renal, 2.97 µM; in the test on UACC-62 melanoma, 3.38 µM; in the test on SK-MEL-5 melanoma it was 3.03 µM; in the test on OVCAR-8 ovarian it was 11.3 µM. Besides, the TGI in the test with NCI/ADR-RES ovarian amounted to 14.2 µM; in the test on SNB-75 CNS it was 5.05 µM; in the test on TK-10 renal, 3.57 µM; in the test with SF-268 CNS it was 3.1 µM.
As for `O=C1NC(=NCc2cccs2)O/C1=C\c1ccc2ncccc2c1`, the GI50 is 7.9 µM with NCI-H23 lung; 4.1 µM with SK-OV-3 ovarian; 3.86 µM with CAKI-1 renal; 4.42 µM in the test on UACC-62 melanoma; 4.63 µM in the test with SK-MEL-5 melanoma; 4.27 µM in the test with OVCAR-8 ovarian. For the same compound, the GI50 was 7.8 µM in the test on NCI/ADR-RES ovarian, 1.72 µM in the test with SNB-75 CNS, 2.89 µM in the test with TK-10 renal and 5.34 µM in the test with SF-268 CNS. The TGI is over 25 µM in the test on NCI-H23 lung; 12.2 µM in the test with SK-OV-3 ovarian; 12.3 µM in the test on CAKI-1 renal; 11.5 µM in the test on UACC-62 melanoma; 9.83 µM in the test with SK-MEL-5 melanoma; 16.6 µM in the test with OVCAR-8 ovarian. Also, the TGI was over 25 µM in the test with NCI/ADR-RES ovarian, 8.08 µM with SNB-75 CNS, 9.61 µM in the test with TK-10 renal and 18.1 µM in the test on SF-268 CNS.

These data come from PubChem BioAssay (NCI).
